Laboratory results: patent US7771977B2, “Alkane polyol dehydrogenase” (National University Corporation Nara Institute of Science …, priority 2006, dated 2010)
“Also recorded” adds a separate entry of the source. Where two headings read alike, the source gives them in different places.

Experiments:
[1] = tested on: alkane polyol dehydrogenase (purified enzyme); assay type: biochemical, Pichia ofunaensis
Method: The reaction solutions were prepared using plural substrates with varied concentrations. Each solution contained a substrate, 2 mM NAD^+, and an enzyme, and was allowed to react in a 100 mM potassium phosphate buffer solution (pH 8.0) at 25° C. Then, changes in absorbance (molar absorption coefficient 6,220 M^−1·cm^−1) at 340 nm due to the NADH formation were measured. 1 U is defined as an enzyme amount for catalyzing 1 μmol NADH formation per minute.
(§1) The alkane polyol dehydrogenase obtained in Example 1 was utilized to measure the enzyme activities in the following manner.
(§2) 1 U was defined as the amount of enzyme that catalyzes the formation of 1 μmol of NADH per minute.
(§3) Measurement was performed in the same manner as in the activity measurements described earlier in 4-1.
Such activity was measured by causing a reaction mixture containing 5 mM (R)-1,2-octanediol, 2 mM NAD^+ and enzyme to react in a 100 mM potassium phosphate buffer solution (pH 8.0) at 25° C., then observing the change, due to NADH formation, of absorbance (molecular absorption coefficient 6,220 M^−1 ·cm^−1) at 340 nm. 1 U was defined as the amount of enzyme that catalyzes the formation of 1 μmol of NADH per minute.

E. coli HB101 (pSE420D) = experiment: Substrate specificity, comparison transformant E. coli HB101 (pSE420D) without the enzyme gene; assay type: biochemical, Escherichia coli; settings: for Activity, E. coli HB101 (pSE-420D): comparison transformant, substrate 100 mM, 2 mM NAD+, pH 8.0, 25° C.
Method: as §2
(§4) The substrate specificity of the protein of the present invention was analyzed using the purified enzyme obtained in Example 1 and the transformant (E. coli HB101 (pSE-HOG)) obtained in Example 3. For comparison, the same analysis was conducted with respect to a transformant (E. coli HB101 (pSE420D)) that was produced in the same manner as for E. coli HB101 (pSE-HOG), except that the plasmid (pSE420D) in which the relevant enzyme gene was not inserted was used.
as §3

[2] = tested on: alkane polyol dehydrogenase expressed in E. coli HB101 (pSE-HOG); experiment: Substrate specificity, cell extract of transformant E. coli HB101 (pSE-HOG); assay type: biochemical, Pichia ofunaensis; settings: for Activity, E. coli HB101 (pSE-HOG): cell extract, 2 mM NAD+, pH 8.0, 25° C.; for dehydrogenation (oxidative) activity of E. coli HB101 (pSE-HOG), in words: Table 4
Method: The Escherichia coli HB101 strain containing the pSE-HOG was cultivated in LB medium containing ampicillin. When the absorbance at 600 nm was 0.5, 0.1 mM IPTG was added thereto. Six hours after the addition, cells were harvested by centrifugal separation.
The obtained cells were suspended in a cell disruption solution (100 mM potassium phosphate buffer solution (pH 8.0)). The cell bodies therein were disrupted using a mini bead beater (produced by BioSpec Products), then subjected to centrifugal separation for 10 minutes under an acceleration of 16,000 g. Thereby, the supernatant thereof as a cell extract was obtained.
as §2, §4, §3

[3] = tested on: alkane polyol dehydrogenase (purified enzyme); experiment: Reduction activity measurement with purified alkane polyol dehydrogenase (NADH reduction at 340 nm); assay type: biochemical, Pichia ofunaensis; settings: for Reduction Activity: 0.2 mM NADH, pH 6.0, 25° C.; for reduction activity of the purified enzyme, in words: Table 3
Method: The reaction solutions were prepared using plural substrates with varied concentrations. Each solution contained a substrate, 0.2 mM NADH, and an enzyme, and was allowed to react in a 100 mM potassium phosphate buffer solution (pH 6.0) at 25° C. Then, changes in absorbance (molar absorption coefficient 6,220 M^−1·cm^−1) at 340 nm due to the NADH reduction were measured. 1 U is defined as an enzyme amount for catalyzing 1 μmol NADH reduction per minutes.
as §1
1 U was defined as the amount of enzyme that catalyzes the reduction of 1 μmol of NADH per minute.

[4] = purified enzyme, substrate 100 mM, 2 mM NAD+, pH 8.0, 25° C.
[5] = purified enzyme, Tables 2 and 4

C[C@H](O)CO [(S)-1,2-Propanediol]
Oxidative Activity [1, 4]: 36.4 U/mg
Activity, E. coli HB101 (pSE-420D) (E. coli HB101 (pSE420D)): <0.1 U/mg
Activity, E. coli HB101 (pSE-HOG) ([2]; substrate 100 mM): 0.29 U/mg

CC(O)CO (stereo not drawn) [1,2-Propanediol]
oxidative (dehydrogenation) activity of the purified enzyme, in words [1, 5]: well-oxidized; also recorded: high dehydrogenation activity
Oxidative Activity [1, 4]: 71.7 U/mg
dehydrogenation (oxidative) activity of E. coli HB101 (pSE-HOG), in words [2]: high dehydrogenation activity

CCC(=O)CO [1-Hydroxy-2-butanone]
Reduction Activity ([3]; substrate 100 mM): 5.84 U/mg

OCC[C@H](O)CO [(S)-1,2,4-Butanetriol]
oxidative (dehydrogenation) activity of the purified enzyme, in words [1, 5]: no activity was seen
dehydrogenation (oxidative) activity of E. coli HB101 (pSE-HOG), in words [2]: no activity was seen

CCC(C)=O [2-Butanone]
Reduction Activity ([3]; substrate 100 mM): 0.40 U/mg

CCCCCO [1-Pentanol]
oxidative (dehydrogenation) activity of the purified enzyme, in words [1, 5]: did not have oxidative activity

CCCO [1-Propanol]
oxidative (dehydrogenation) activity of the purified enzyme, in words [1]: did not have oxidative activity

CCCC(=O)C(C)=O [2,3-Hexanedione]
reduction activity of the purified enzyme, in words [3]: high reduction activity
Reduction Activity ([3]; substrate 5 mM): 67.5 U/mg

C[C@H](O)[C@H](C)O [(2S,3S)-2,3-Butanediol]
Oxidative Activity [1, 4]: 19.4 U/mg
Activity, E. coli HB101 (pSE-HOG) ([2]; substrate 100 mM): 0.12 U/mg

OCC[C@@H](O)CO [(R)-1,2,4-Butanetriol]
oxidative (dehydrogenation) activity of the purified enzyme, in words [1, 5]: significant dehydrogenation activity
Oxidative Activity [1, 4]: 3.9 U/mg
dehydrogenation (oxidative) activity of E. coli HB101 (pSE-HOG), in words [2]: significant dehydrogenation activity
Activity, E. coli HB101 (pSE-HOG) ([2]; substrate 100 mM): 0.15 U/mg

CCCCCCC(O)CO (stereo not drawn) [1,2-Octanediol]
oxidative (dehydrogenation) activity of the purified enzyme, in words [1, 5]: well-oxidized
oxidative (dehydrogenation) activity of the purified enzyme, in words ([1]; purified enzyme, Tables 2 and 4, listed as (R,S)-1,2-octanediol): excellent dehydrogenation activity; also recorded: show an oxidative activity
Oxidative Activity ([1]; purified enzyme, substrate 5 mM, 2 mM NAD+, pH 8.0, 25° C.): 64.3 U/mg
dehydrogenation activity of E. coli HB101 (pSE420D), in words (E. coli HB101 (pSE420D); Table 4): does not show the dehydrogenation activity
dehydrogenation (oxidative) activity of E. coli HB101 (pSE-HOG), in words ([2]; listed as (R,S)-1,2-octanediol): excellent dehydrogenation activity; also recorded: show an oxidative activity
Activity, E. coli HB101 (pSE-HOG) ([2]; substrate 5 mM): 0.53 U/mg

CCO [Ethanol]
oxidative (dehydrogenation) activity of the purified enzyme, in words [1]: did not have oxidative activity

CC(=O)CO [Acetol]
reduction activity of the purified enzyme, in words [3]: high reduction activity
Reduction Activity ([3]; substrate 100 mM): 64.9 U/mg

CCCCC(O)CO (stereo not drawn) [1,2-Hexanediol]
oxidative (dehydrogenation) activity of the purified enzyme, in words [1, 5]: well-oxidized
Oxidative Activity [1, 4]: 38.4 U/mg

CCCCCC[C@@H](O)CO [(R)-1,2-octanediol]
(R)-1,2-octanediol dehydrogenase activity per 1 mg of the purified protein ([1]; per 1 mg purified protein, 5 mM substrate, 2 mM NAD+, pH 8.0, 25° C.): ≥ 60 U

CC(O)C(C)O (stereo not drawn) [meso-2,3-Butanediol]
Oxidative Activity [1, 4]: 160 U/mg
Activity, E. coli HB101 (pSE-420D) (E. coli HB101 (pSE420D)): <0.1 U/mg
Activity, E. coli HB101 (pSE-HOG) ([2]; substrate 100 mM): 1.17 U/mg

CCC(C)O (stereo not drawn) [2-Butanol]
oxidative (dehydrogenation) activity of the purified enzyme, in words [1]: weak oxidative activity
Oxidative Activity ([1]; pH 8): <0.1 U/mg

CO [Methanol]
oxidative (dehydrogenation) activity of the purified enzyme, in words [1, 5]: did not have oxidative activity

OCc1ccccc1 [Benzyl alcohol]
oxidative (dehydrogenation) activity of the purified enzyme, in words [1, 5]: did not have oxidative activity

CC(O)C(C)O (stereo not drawn) [2,3-Butanediol]
oxidative (dehydrogenation) activity of the purified enzyme, in words [1, 5]: well-oxidized; also recorded: high dehydrogenation activity
Oxidative Activity [1, 4]: 50.0 U/mg
dehydrogenation (oxidative) activity of E. coli HB101 (pSE-HOG), in words [2]: high dehydrogenation activity

C[C@@H](O)[C@@H](C)O [(2R,3R)-2,3-Butanediol]
Oxidative Activity [1, 4]: 82.1 U/mg
Activity, E. coli HB101 (pSE-HOG) ([2]; substrate 100 mM): 0.72 U/mg

CCC(=O)C(=O)CC [3,4-Hexanedione]
reduction activity of the purified enzyme, in words [3]: high reduction activity
Reduction Activity ([3]; substrate 5 mM): 32.8 U/mg

CCCC(C)=O [2-Pentanone]
Reduction Activity ([3]; substrate 100 mM): 3.71 U/mg

CCCCCCC(C)O (stereo not drawn) [2-Octanol]
oxidative (dehydrogenation) activity of the purified enzyme, in words [1, 5]: no activity was observed

CCCCCC(C)O (stereo not drawn) [2-Heptanol]
oxidative (dehydrogenation) activity of the purified enzyme, in words [1, 5]: no activity was observed

CC(=O)C(C)O (stereo not drawn) [3-Hydroxy-2-butanone]
reduction activity of the purified enzyme, in words [3]: high reduction activity
Reduction Activity ([3]; substrate 100 mM): 102 U/mg
Oxidative Activity [1, 4]: 0.55 U/mg

CC(O)CC(C)O (stereo not drawn) [2,4-Pentanediol]
oxidative (dehydrogenation) activity of the purified enzyme, in words [1, 5]: only a weak oxidative activity
Oxidative Activity [1, 4]: 2.53 U/mg

CCCC(=O)CC [3-Hexanone]
Reduction Activity ([3]; substrate 10 mM): 1.39 U/mg

C[C@@H](O)CO [(R)-1,2-Propanediol]
Oxidative Activity [1, 4]: 89.2 U/mg
Activity, E. coli HB101 (pSE-420D) (E. coli HB101 (pSE420D)): <0.1 U/mg
Activity, E. coli HB101 (pSE-HOG) ([2]; substrate 100 mM): 0.80 U/mg

CCC(O)CO (stereo not drawn) [1,2-Butanediol]
oxidative (dehydrogenation) activity of the purified enzyme, in words [1, 5]: well-oxidized
Oxidative Activity [1, 4]: 61.0 U/mg

CC(O)CCO (stereo not drawn) [1,3-Butanediol]
oxidative (dehydrogenation) activity of the purified enzyme, in words [1, 5]: only a weak oxidative activity
Oxidative Activity [1, 4]: 6.0 U/mg

CCCCCCO [n-Hexanol]
oxidative (dehydrogenation) activity of the purified enzyme, in words [1, 5]: did not have oxidative activity

O=C1CCCCC1 [Cyclohexanone]
Reduction Activity ([3]; substrate 10 mM): 0.28 U/mg

CC(O)CCC(C)O (stereo not drawn) [2,5-Hexanediol]
oxidative (dehydrogenation) activity of the purified enzyme, in words [1, 5]: only a weak oxidative activity
Oxidative Activity [1, 4]: 0.77 U/mg

CCCC(O)CO (stereo not drawn) [1,2-Pentanediol]
oxidative (dehydrogenation) activity of the purified enzyme, in words [1, 5]: well-oxidized
Oxidative Activity [1, 4]: 99.3 U/mg

CCCCCC(O)CO (stereo not drawn) [1,2-Heptanediol]
oxidative (dehydrogenation) activity of the purified enzyme, in words [1, 5]: well-oxidized
Oxidative Activity ([1]; purified enzyme, substrate 10 mM, 2 mM NAD+, pH 8.0, 25° C.): 27.8 U/mg

CCC(=O)C(C)=O [2,3-Pentanedione]
reduction activity of the purified enzyme, in words [3]: high reduction activity
Reduction Activity ([3]; substrate 5 mM): 73.8 U/mg

CC(C)O [Isopropanol]
oxidative (dehydrogenation) activity of the purified enzyme, in words [1, 5]: weak oxidative activity
Oxidative Activity [1, 4]: 1.45 U/mg

CCCCO [1-Butanol]
oxidative (dehydrogenation) activity of the purified enzyme, in words [1]: did not have oxidative activity
